Experiments:
[1] = target: recombinant ROCK2 (amino acids 1-552) (Homo sapiens (Human), UniProt O75116); assay: Z'-lyte kinase assay, ROCK2; format: biochemical
Experimental: Determination of compounds ROCK inhibitory activity in vitro (Z'lyte assay): recombinant ROCK1 (amino acids 1-535) and ROCK2 (amino acids 1-552) proteins were purchased from ThermoFisher Scientific. Compounds activities were measured by Z'-lyte kinase kit (ThermoFisher Scientific) and IC50s were calculated.
Compounds activities were measured by Z'-lyte kinase kit (ThermoFisher Scientific). […] IC50s were calculated using the GraphPad Prism software with kinase activities data that were collected from 9 points serial dilution of compounds treatment. The ROCK inhibition in A7R5 cells and NIH3T3 (Acta2-Luc) cells was performed as described above.
The percent inhibition rate was calculated by normalizing the kinase activity value obtained with compound treatment against DMSO control value and then applied to the equation, […]. IC50's were calculated using the nonlinear regression curve fit function of the GraphPad Prism software with kinase activities data measured with 9 points 2-fold serial dilution of compounds treatment.

[2] = test system: ACTA2-promoter-driven-luciferase in NIH3T3 cells; assay: NIH3T3 Acta2-promoter driven-luciferase assay; format: cell-based; settings: Mus musculus, plus TGFβ1, 24 hr, read-out: NIH3T3, Acta2-luc, IC50
Experimental: NIH3T3 cells Acta2-promoter driven-luciferase assay: A NIH3T3 cell line stably expressing a luciferase reporter driven by the human ACTA2 gene promoter (−1000-1 bp) was established (NIH3T3-Acta2-luciferase). The cells were plated to confluence and treated with the test compounds plus TGFβ1 for 24 hr. Cells were then lysed and luciferase activity was measured using the LightSwitch luciferase kit from Active Motif.
ROCK inhibitors can be effectively rank ordered by ACTA2-promoter-driven-luciferase reporter cell assay. NIH3T3 cells stably expressing ACTA2-promoter-driven-luciferase were applied to measure ROCK compounds functional IC50's in cells. Cells were plated in 96 well plates to confluence and treated with 9 points serial dilution of compounds in combination with TGFβ1 for 24 hr. Luciferase activities were measured and compound's IC50's were calculated using the nonlinear regression curve fit function of the GraphPad Prism software. Compounds of the invention gave in cell IC50's under 200 nM, see FIG. 1c.

[3] = test system: ppMlc (T18/S19) levels in A7R5 cells; assay: A7R5 in-cell ELISA assay (ppMlc); format: cell-based, rat; settings: Rattus norvegicus, A7R5, A7R5 cells, Table 2; read-out: pMLC IC50 (nM) A7R5
Experimental: Determination of compounds ROCK inhibitory activity in A7R5 cells: rat aortic smooth muscle cell line A7R5 cells were maintained and treated in DMEM medium with 10% of fetal bovine serum. Cells were seeded with density of 5,000 cells/well in 96-well plates for 24 hours and subsequently treated 90 min with testing compounds. Cells were then fixed and processed according to the In-Cell ELISA Colorimetric Detection Kit manual (Thermo Scientific).
A7R5 cells were treated with 9 points 2 fold serial dilution of compounds and ppMlc (T18/S19) levels were determined in order to calculate the cellular IC50s of the compounds.
An A7R5 in-cell ELISA assay was performed to determine ROCK inhibition of test articles. A7R5 cells were treated with 9 points 2-fold serial dilution of compounds and ppMlc (T18/S19) levels were determined to calculate cellular IC50 values of the compounds. […] A7R5 cells were treated with 9 points 2-fold serial dilution of compounds and ppMlc (T18/S19) levels were determined to calculate cellular IC50 values of the compounds using the nonlinear regression curve fit function of the GraphPad Prism software.

recombinant ROCK2 (amino acids 1-552), sequence (O75116 1-552): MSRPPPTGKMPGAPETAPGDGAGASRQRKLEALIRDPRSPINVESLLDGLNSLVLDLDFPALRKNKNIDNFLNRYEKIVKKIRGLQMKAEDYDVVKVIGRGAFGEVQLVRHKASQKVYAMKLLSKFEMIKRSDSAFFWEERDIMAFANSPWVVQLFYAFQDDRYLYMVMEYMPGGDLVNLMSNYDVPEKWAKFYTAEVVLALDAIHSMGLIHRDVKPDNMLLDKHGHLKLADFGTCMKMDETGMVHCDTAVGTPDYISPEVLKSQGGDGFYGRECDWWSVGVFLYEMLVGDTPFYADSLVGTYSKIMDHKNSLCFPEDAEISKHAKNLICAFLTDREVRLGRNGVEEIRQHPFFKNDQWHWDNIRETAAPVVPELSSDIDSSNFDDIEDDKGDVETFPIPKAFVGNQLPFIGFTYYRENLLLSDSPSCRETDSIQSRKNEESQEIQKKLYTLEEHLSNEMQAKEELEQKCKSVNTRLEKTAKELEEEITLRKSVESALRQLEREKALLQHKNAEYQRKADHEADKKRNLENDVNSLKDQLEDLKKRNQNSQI

COc1cccc(C2C(=O)N(c3ccc(-c4cn[nH]c4)cc3)CCCN2CCN(C)C)c1 (stereo not drawn) [Example 75, 1-(4-(1H-pyrazol-4-yl)phenyl)-4-(2-(dimethylamino)ethyl)-3-(3-methoxyphenyl)-1,4-diazepan-2-one]
IC50 [1]: > 1000 nM

COc1cccc(C(NCCN2CCOCC2)C(=O)Nc2ccc(-c3cn[nH]c3)cc2)c1 (stereo not drawn) [Example 50, N-(4-(1H-pyrazol-4-yl)phenyl)-2-(3-methoxyphenyl)-2-((2-morpholinoethyl)amino)acetamide]
IC50 [2]: 92 nM | IC50 [3]: 97 nM | IC50 [1]: 2.4 nM

COCCN(C)C(C(=O)Nc1cc(F)c(-c2cn[nH]c2)cc1OCCN(C)C)c1cccc(OC)c1 (stereo not drawn) [Example 51, N-(2-(2-(dimethylamino)ethoxy)-5-fluoro-4-(1H-pyrazol-4-yl)phenyl)-2-((2-methoxyethyl)(methyl)amino)-2-(3-methoxyphenyl)acetamide]
IC50 [2]: 101 nM | IC50 [3]: 54 nM | IC50 [1]: 8.1 nM

COc1cccc(C(NCC(=O)N(C)C)C(=O)Nc2ccc(-c3cn[nH]c3)cc2)c1 (stereo not drawn) [Example 39, N-(4-(1H-pyrazol-4-yl)phenyl)-2-((2-(dimethylamino)-2-oxoethyl)amino)-2-(3-methoxyphenyl)acetamide]
IC50 [2]: > 5000 nM | IC50 [3]: 1670 nM | IC50 [1]: 16 nM

CCN(CCOC)C(C(=O)Nc1ccc(-c2cn[nH]c2)cc1)c1cccc(OC)c1 (stereo not drawn) [Example 46, N-(4-(1H-pyrazol-4-yl)phenyl)-2-(ethyl(2-methoxyethyl)amino)-2-(3-methoxyphenyl)acetamide]
IC50 [2]: 1200 nM | IC50 [3]: 1880 nM | IC50 [1]: 107 nM

CN[C@H](C(=O)Nc1ccc(-c2cn[nH]c2)cc1)c1ccc(Cl)cc1 [Example 64, (S)—N-(4-(1H-pyrazol-4-yl)phenyl)-2-(4-chlorophenyl)-2-(methylamino)acetamide]
IC50 [2]: 227 nM | IC50 [3]: 379 nM | IC50 [1]: 24 nM

CNC(C(=O)Nc1ccc(-c2cn[nH]c2)cc1)c1cccc(C(=O)O)c1 (stereo not drawn) [Example 32, 3-(2-((4-(1H-pyrazol-4-yl)phenyl)amino)-1-(methylamino)-2-oxoethyl)benzoic acid]
IC50 [2]: > 5000 nM | IC50 [3]: > 5000 nM | IC50 [1]: 31 nM

CCNC(C(=O)Nc1ccc(-c2cn[nH]c2)cc1)c1cccc(Cl)c1 (stereo not drawn) [Example 16, N-(4-(1H-pyrazol-4-yl)phenyl)-2-(3-chlorophenyl)-2-(ethylamino)acetamide]
IC50 [2]: 376 nM | IC50 [3]: 292 nM | IC50 [1]: 3.5 nM

CNC(C(=O)Nc1ccc(-c2cn[nH]c2)cc1)c1ccc(C(=O)OC)cc1 (stereo not drawn) [Example 34, methyl 4-(2-((4-(1H-pyrazol-4-yl)phenyl)amino)-1-(methylamino)-2-oxoethyl)benzoate]
IC50 [2]: > 5000 nM | IC50 [3]: > 5000 nM | IC50 [1]: 310 nM

CNC(=O)c1cccc(C(NC)C(=O)Nc2ccc(-c3cn[nH]c3)cc2)c1 (stereo not drawn) [Example 67, 3-(2-((4-(1H-pyrazol-4-yl)phenyl)amino)-1-(methylamino)-2-oxoethyl)-N-methylbenzamide]
IC50 [2]: 296 nM | IC50 [3]: 269 nM | IC50 [1]: 1.9 nM

CNCCN1CCCN(c2ccc(-c3cn[nH]c3)cc2)C(=O)C1c1cccc(OC)c1 (stereo not drawn) [Example 76, 1-(4-(1H-pyrazol-4-yl)phenyl)-3-(3-methoxyphenyl)-4-(2-(methylamino)ethyl)-1,4-diazepan-2-one]
IC50 [1]: 950 nM

CNC(C(=O)Nc1ccc(-c2cn[nH]c2)cc1)c1cccc(N(C)C)c1 (stereo not drawn) [Example 28, N-(4-(1H-pyrazol-4-yl)phenyl)-2-(3-(dimethylamino)phenyl)-2-(methylamino)acetamide]
IC50 [2]: 335 nM | IC50 [3]: 947 nM | IC50 [1]: 82 nM

CCNC(C(=O)Nc1ccc(-c2cn[nH]c2)cc1)c1ccc(OC)cc1 (stereo not drawn) [Example 10, N-(4-(1H-pyrazol-4-yl)phenyl)-2-(ethylamino)-2-(4-methoxyphenyl)acetamide]
IC50 [2]: 1280 nM | IC50 [3]: 255 nM | IC50 [1]: 21 nM

COCC1(NC(C(=O)Nc2ccc(-c3cn[nH]c3)cc2)c2cccc(OC)c2)CC1 (stereo not drawn) [Example 53, N-(4-(1H-pyrazol-4-yl)phenyl)-2-((1-(methoxymethyl)cyclopropyl)amino)-2-(3-methoxyphenyl)acetamide]
IC50 [2]: 1260 nM | IC50 [3]: 759 nM | IC50 [1]: 31 nM

COCCNC(C(=O)Nc1cc(F)c(-c2cn[nH]c2)cc1OCCN(C)C)c1cccc(OC)c1 (stereo not drawn) [Example 48, N-(2-(2-(dimethylamino)ethoxy)-5-fluoro-4-(1H-pyrazol-4-yl)phenyl)-2-((2-methoxyethyl)amino)-2-(3-methoxyphenyl)acetamide]
IC50 [2]: 1010 nM | IC50 [3]: 314 nM | IC50 [1]: 67 nM

COc1cccc(C(NCCN2CCCC2)C(=O)Nc2ccc(-c3cn[nH]c3)cc2)c1 (stereo not drawn) [Example 52, N-(4-(1H-pyrazol-4-yl)phenyl)-2-(3-methoxyphenyl)-2-((2-(pyrrolidin-1-yl)ethyl)amino)acetamide]
IC50 [2]: 675 nM | IC50 [3]: 106 nM | IC50 [1]: 17 nM

CNC(C(=O)Nc1ccc(-c2cn[nH]c2)cc1)c1ccc(N(C)C)cc1 (stereo not drawn) [Example 31, N-(4-(1H-pyrazol-4-yl)phenyl)-2-(4-(dimethylamino)phenyl)-2-(methylamino)acetamide]
IC50 [2]: 1230 nM | IC50 [3]: 667 nM | IC50 [1]: 55 nM

CNC(C(=O)Nc1ccc(-c2cn[nH]c2)cc1)c1ccc(OC)c(F)c1 (stereo not drawn) [Example 23, N-(4-(1H-pyrazol-4-yl)phenyl)-2-(3-fluoro-4-methoxyphenyl)-2-(methylamino)acetamide]
IC50 [2]: 252 nM | IC50 [3]: 435 nM | inhibition at 0.5 µM ([1]; @ 0.5 μM, read-out: ROCK2 % inh (0.5 μM)): 91%

CNC(C(=O)Nc1ccc(-c2cn[nH]c2)cc1)c1ccc2nc(C)sc2c1 (stereo not drawn) [Example 27, N-(4-(1H-pyrazol-4-yl)phenyl)-2-(methylamino)-2-(2-methylbenzo[d]thiazol-6-yl)acetamide]
IC50 [2]: 699 nM | IC50 [3]: 1680 nM | IC50 [1]: 65 nM

CNC(C(=O)Nc1ccc(-c2cn[nH]c2)cc1)c1ccc2nc(C)[nH]c2c1 (stereo not drawn) [Example 35, N-(4-(1H-pyrazol-4-yl)phenyl)-2-(2-methyl-1H-benzo[d]imidazol-6-yl)-2-(methylamino)acetamide]
IC50 [2]: > 5000 nM | IC50 [3]: > 5000 nM | IC50 [1]: 486 nM

CNCCCNC(C(=O)Nc1ccc(-c2cn[nH]c2)cc1)c1cccc(OC)c1 (stereo not drawn) [Example 42, N-(4-(1H-pyrazol-4-yl)phenyl)-2-(3-methoxyphenyl)-2-((3-(methylamino)-propyl)amino)acetamide]
IC50 [3]: 359 nM | IC50 [1]: 6.5 nM

COc1cccc(C2C(=O)N(c3ccc(-c4cn[nH]c4)cc3)CCCN2CC2CC2)c1 (stereo not drawn) [Example 74, 1-(4-(1H-pyrazol-4-yl)phenyl)-4-(cyclopropylmethyl)-3-(3-methoxyphenyl)-1,4-diazepan-2-one]
IC50 [1]: > 1000 nM

CNC(C(=O)Nc1ccc(-c2cn[nH]c2)cc1)c1ccc(OC)cc1 (stereo not drawn) [Example 9, N-(4-(1H-pyrazol-4-yl)phenyl)-2-(4-methoxyphenyl)-2-(methylamino)acetamide]
IC50 [3]: 355 nM | IC50 [1]: 15.4 nM

CNC(C(=O)Nc1cc(F)c(-c2cn[nH]c2)cc1OCCCN(C)C)c1cccc(OC)c1 (stereo not drawn) [Example 70, N-(2-(3-(dimethylamino)propoxy)-5-fluoro-4-(1H-pyrazol-4-yl)phenyl)-2-(3-methoxyphenyl)-2-(methylamino)acetamide]
IC50 [3]: 134 nM | IC50 [1]: 7.7 nM

COCC(C)(C)NC(C(=O)Nc1ccc(-c2cn[nH]c2)cc1)c1cccc(OC)c1 (stereo not drawn) [Example 43, N-(4-(1H-pyrazol-4-yl)phenyl)-2-((1-methoxy-2-methylpropan-2-yl)amino)-2-(3-methoxyphenyl)acetamide]
IC50 [3]: 1490 nM | IC50 [1]: 47 nM

COCCNC(C(=O)N(C)c1ccc(-c2cn[nH]c2)cc1)c1cccc(OC)c1 (stereo not drawn) [Example 49, N-(4-(1H-pyrazol-4-yl)phenyl)-2-((2-methoxyethyl)amino)-2-(3-methoxyphenyl)-N-methylacetamide]
IC50 [1]: > 1000 nM

From US11479533B2, “Inhibitors of Rho associated coiled-coil containing protein kinase” (KADMON CORPORATION, LLC, priority 2017, dated 2022)
